Tested on: skin of hairless mice
Test: topical skin irritation test in hairless mice
Format: in vivo, mouse
Details: topical in acetone, once daily days 1 through 5, mean ±SD, range 0-21
Source text: Mice were housed individually throughout the dosing period.
Doses are disclosed as nmol/25 g.
The grading scale used is as follows:
Values can range from 0-9.
Values can range from 0-8.

SMILES: CC1(C)CCC(=O)c2ccc(C#Cc3ccc(CC(=O)O)cc3)cc21 [Compound 5, 4-[(8,8-Dimethyl-5-oxo-5,6,7,8-tetrahydro-naphthalene-2-yl-ethynyl)-phenyl]-acetic Acid]
- Cutaneous Toxicity Score (Blackjack Score) (100 nmole (nmol/25 g)): 0
- Cutaneous Toxicity Score (Blackjack Score) (1000 nmole (nmol/25 g)): 6 ± 3

SMILES: CN(C1CC1)C1CCC(C)(C)c2cc(C#Cc3ccc(CC(=O)O)cc3)ccc21 (centres unmarked) [Compound 8, 4-[(5-(Cyclopropyl-methyl-amino)-8,8-dimethyl-5,6,7,8-tetrahydro-naphthalene-2-yl-ethynyl)-phenyl]-acetic Acid]
- Cutaneous Toxicity Score (Blackjack Score) (100 nmole (nmol/25 g)): 5 ± 2
- Cutaneous Toxicity Score (Blackjack Score) (300 nmole (nmol/25 g)): 8 ± 3
- Cutaneous Toxicity Score (Blackjack Score) (1000 nmole (nmol/25 g)): 12 ± 1
